Results as given in the NIST ThermoML archive (doi:10.1016/j.fluid.2010.07.011).
± gives the expanded uncertainty stated by the source.

Assay: xn = mol fraction of the nth substance listed
Details: 101.33 kPa, Liquid, Vibrating tube method

CCCCCCN [1-hexanamine] + CCCCO
mass density [kg/m3]
Details	288.15 K	293.15 K	298.15 K	303.15 K	308.15 K	313.15 K	318.15 K	323.15 K
x2 = 0	768.637 ± 0.6	764.385 ± 0.59	760.128 ± 0.59	755.856 ± 0.59	751.573 ± 0.58	747.276 ± 0.58	742.962 ± 0.58	738.636 ± 0.57
x2 = 0.0503	771.284 ± 0.56	767.06 ± 0.56	762.826 ± 0.56	758.576 ± 0.56	754.314 ± 0.55	750.035 ± 0.55	745.737 ± 0.55	741.427 ± 0.54
x2 = 0.1108	774.579 ± 0.53	770.381 ± 0.52	766.172 ± 0.52	761.947 ± 0.52	757.705 ± 0.51	753.444 ± 0.51	749.165 ± 0.51	744.868 ± 0.51
x2 = 0.1615	777.172 ± 0.49	772.994 ± 0.49	768.799 ± 0.49	764.593 ± 0.49	760.366 ± 0.48	756.118 ± 0.48	751.85 ± 0.48	747.565 ± 0.48
x2 = 0.2004	779.327 ± 0.47	775.161 ± 0.47	770.98 ± 0.47	766.783 ± 0.46	762.567 ± 0.46	758.331 ± 0.46	754.072 ± 0.46	749.795 ± 0.46
x2 = 0.2455	781.707 ± 0.44	777.556 ± 0.44	773.386 ± 0.44	769.201 ± 0.44	764.996 ± 0.43	760.77 ± 0.43	756.52 ± 0.43	752.247 ± 0.43
x2 = 0.3004	784.53 ± 0.41	780.391 ± 0.41	776.235 ± 0.41	772.062 ± 0.41	767.867 ± 0.41	763.651 ± 0.4	759.41 ± 0.4	755.147 ± 0.4
x2 = 0.4	789.735 ± 0.36	785.619 ± 0.36	781.483 ± 0.35	777.33 ± 0.35	773.155 ± 0.35	768.956 ± 0.35	764.732 ± 0.35	760.481 ± 0.35
x2 = 0.4802	793.847 ± 0.32	789.75 ± 0.32	785.637 ± 0.32	781.501 ± 0.32	777.345 ± 0.32	773.162 ± 0.32	768.953 ± 0.31	764.717 ± 0.31
x2 = 0.6294	800.788 ± 0.25	796.75 ± 0.25	792.692 ± 0.25	788.612 ± 0.25	784.508 ± 0.25	780.377 ± 0.25	776.215 ± 0.25	772.02 ± 0.25
x2 = 0.6999	803.655 ± 0.22	799.656 ± 0.22	795.637 ± 0.22	791.594 ± 0.23	787.526 ± 0.23	783.429 ± 0.23	779.299 ± 0.23	775.138 ± 0.23
x2 = 0.75	805.487 ± 0.21	801.517 ± 0.21	797.53 ± 0.21	793.517 ± 0.21	789.481 ± 0.21	785.41 ± 0.21	781.306 ± 0.21	777.172 ± 0.21
x2 = 0.7997	807.332 ± 0.19	803.397 ± 0.19	799.441 ± 0.19	795.46 ± 0.19	791.45 ± 0.19	787.411 ± 0.19	783.336 ± 0.19	779.228 ± 0.2
x2 = 0.8495	808.927 ± 0.17	805.024 ± 0.17	801.1 ± 0.18	797.154 ± 0.18	793.178 ± 0.18	789.169 ± 0.18	785.123 ± 0.18	781.043 ± 0.18
x2 = 0.8994	810.567 ± 0.16	806.697 ± 0.16	802.808 ± 0.16	798.893 ± 0.16	794.95 ± 0.17	790.973 ± 0.17	786.956 ± 0.17	782.9 ± 0.17
x2 = 0.9504	812.092 ± 0.15	808.261 ± 0.15	804.406 ± 0.15	800.528 ± 0.15	796.618 ± 0.15	792.674 ± 0.15	788.687 ± 0.15	784.663 ± 0.16

CCCCCCN [1-hexanamine] + CCCCCCC
mass density [kg/m3]
Details	288.15 K	293.15 K	298.15 K	303.15 K	308.15 K	313.15 K	318.15 K	323.15 K
x1 = 0.0497	691.084 ± 0.18	686.872 ± 0.18	682.638 ± 0.19	678.375 ± 0.19	674.087 ± 0.19	669.766 ± 0.19	665.416 ± 0.19	661.034 ± 0.19
x1 = 0.0712	692.472 ± 0.19	688.259 ± 0.19	684.023 ± 0.19	679.762 ± 0.19	675.473 ± 0.19	671.155 ± 0.19	666.804 ± 0.2	662.428 ± 0.2
x1 = 0.1	694.376 ± 0.19	690.164 ± 0.19	685.929 ± 0.19	681.666 ± 0.2	677.379 ± 0.2	673.063 ± 0.2	668.716 ± 0.2	664.339 ± 0.2
x1 = 0.1394	697.059 ± 0.2	692.841 ± 0.2	688.603 ± 0.2	684.341 ± 0.2	680.052 ± 0.2	675.736 ± 0.2	671.39 ± 0.2	667.016 ± 0.21
x1 = 0.2017	701.458 ± 0.21	697.235 ± 0.21	692.989 ± 0.21	688.722 ± 0.21	684.431 ± 0.21	680.114 ± 0.22	675.766 ± 0.22	671.395 ± 0.22
x1 = 0.3011	708.825 ± 0.24	704.586 ± 0.24	700.331 ± 0.24	696.055 ± 0.24	691.758 ± 0.24	687.436 ± 0.24	683.088 ± 0.24	678.716 ± 0.24
x1 = 0.4001	716.491 ± 0.27	712.241 ± 0.27	707.974 ± 0.27	703.691 ± 0.27	699.388 ± 0.27	695.063 ± 0.27	690.714 ± 0.27	686.344 ± 0.27
x1 = 0.5105	725.411 ± 0.31	721.153 ± 0.31	716.879 ± 0.31	712.593 ± 0.31	708.285 ± 0.31	703.959 ± 0.3	699.61 ± 0.3	695.241 ± 0.3
x1 = 0.5996	732.829 ± 0.35	728.568 ± 0.34	724.292 ± 0.34	720.004 ± 0.34	715.698 ± 0.34	711.371 ± 0.34	707.026 ± 0.34	702.664 ± 0.34
x1 = 0.6802	739.756 ± 0.39	735.495 ± 0.39	731.219 ± 0.38	726.929 ± 0.38	722.623 ± 0.38	718.301 ± 0.38	713.958 ± 0.38	709.598 ± 0.38
x1 = 0.7495	745.832 ± 0.42	741.569 ± 0.42	737.294 ± 0.42	733.009 ± 0.42	728.705 ± 0.42	724.386 ± 0.42	720.046 ± 0.41	715.689 ± 0.41
x1 = 0.7984	750.175 ± 0.45	745.914 ± 0.45	741.641 ± 0.45	737.357 ± 0.45	733.056 ± 0.45	728.74 ± 0.45	724.406 ± 0.44	720.058 ± 0.44
x1 = 0.8484	754.693 ± 0.49	750.434 ± 0.48	746.164 ± 0.48	741.883 ± 0.48	737.584 ± 0.48	733.272 ± 0.47	728.943 ± 0.47	724.594 ± 0.47
x1 = 0.8999	759.4 ± 0.52	755.143 ± 0.52	750.877 ± 0.52	746.597 ± 0.51	742.304 ± 0.51	737.996 ± 0.51	733.672 ± 0.51	729.332 ± 0.5
x1 = 0.9467	763.694 ± 0.56	759.441 ± 0.55	755.177 ± 0.55	750.901 ± 0.55	746.613 ± 0.54	742.31 ± 0.54	737.99 ± 0.54	733.656 ± 0.54
x1 = 1	768.637 ± 0.6	764.385 ± 0.59	760.128 ± 0.59	755.856 ± 0.59	751.573 ± 0.58	747.276 ± 0.58	742.962 ± 0.58	738.636 ± 0.57

CCCCCCC [heptane] + CCCCCCN
x2 = 0
Details	mass density [kg/m3]
288.15 K	687.954 ± 0.18
293.15 K	683.733 ± 0.18
298.15 K	679.494 ± 0.18
303.15 K	675.229 ± 0.18
308.15 K	670.941 ± 0.18
313.15 K	666.621 ± 0.18
318.15 K	662.273 ± 0.18
323.15 K	657.896 ± 0.19

CCCCO [butan-1-ol] + CCCCCCN
x1 = 1
Details	mass density [kg/m3]
288.15 K	813.373 ± 0.14
293.15 K	809.573 ± 0.14
298.15 K	805.762 ± 0.14
303.15 K	801.923 ± 0.14
308.15 K	798.053 ± 0.14
313.15 K	794.147 ± 0.14
318.15 K	790.231 ± 0.14
323.15 K	786.238 ± 0.15
